Values belong to the compound of their own block, whether it stands above or below them.
Tests used:
[1] = Photokinetic transdermal permeation study; assay type: in vitro ADME, human; conditions: similar photokinetic conditions
Description: Scleral tissue is more permeable than human skin. The practical upper molecular weight limit with the PODD system is unknown and may be determined by the specific molecular configuration rather than molecular weight per se.

[2] = rabbit
Description: Exogenous human insulin can be differentiated from the endogenous rabbit insulin; the human insulin FITC (fluorescein isothiocyanate) fluorescent tag further allows for tracking of the drug within the tissues.
In this series, rabbits were fitted with transscleral photokinetic device, such as shown in FIG. 1 of this disclosure, for one hour. […] Images were taken of the posterior optic disc, the area where the retina, optic nerve and blood vessels come together on the posterior segment of the eye.

[3] = Histological examination of Franz cell mounted sclera after PODD exposure; parameters: species or system ovine; conditions: MTX formulation, 60 minute exposure, 350 nm LED light
Experimental: (§1) Sclera samples were taken and placed in formalin as follows: Normal control sclera with no exposure to drug or light, Franz cell 60 minute control drug only exposure and Franz cell 60 minute exposure to both drug and 350 nm LED light. Fixed slides were evaluated for structural integrity and gross appearance by a pathologist blinded as to the origin of the sample tissue.
as §1, with “Normal” for “Sclera samples were taken and placed in formalin as follows: Normal”, “light were taken and placed in formalin.” for “light.”, “masked” for “blinded”

[4] = Franz cell sclera tissue permeation, PODD (pulsed LED light) vs passive controls; conditions: for levels of MTX recovered from Franz recipient cell: p<0.05 vs passive controls
Experimental: A traditional “up and down” vertical Franz cell skin perfusion apparatus as described above was adapted and used for this sclera tissue permeation model. […] Two wavelengths of light were selected of this facilitated permeation study. Samples of the Franz recipient solution were taken at 15, 30 and 60 minutes of photokinetic exposure and passive controls and analyzed by HPLC.
Franz cells (PermeGear, Inc, Bethlehem Pa.) having an 11.28 mm diameter permeation area, 1.0 cm^2 were used in the MTX experiment. A photokinetic ocular drug delivery (PODD)-modified Franz cell testing device was configured so that it accommodated the placement of LEDs within the donor chamber. The cells were placed within an aluminum block heater 35.5° C. on a magnetic stir bar setup (Custom manufactured by PermeGear, Inc, Bethlehem Pa.).
Discrete wavelength LEDs were purchased from Roithner Lasertechnick GmbH, Vienna, Austria as follows: 351 nm, #RTL350-30; 370 nm, #RLS-UV370. Peak emitting wavelengths are ±10 nm at the 50% radiance output. The LEDs were driven by a square wave pulse generator built by the investigators for this study. The adjustable square wave pulse generator provided pulsed electrical energy set at 24 cycles per second (CPS) with a 50% pulse duration (ON 50%, OFF 50% of the time). Driver current to the LEDs was limited to or slightly below the manufacturers specified drive current level to avoid exogenous heat generation. […] A donor cell contains the test drug (in this example, methotrexate (MTX)) in a solvent formulation. The recipient cell is filled with a balance salt solution. Samples for chemical analysis are taken from the side arm 27 of the Franz apparatus as discussed above. Control cells are set up the same, but without the LED. LEDs are driven by a square wave pulse generator (not shown) at a voltage slightly less than the manufacture's specified voltage.
Ovine eyes were procured by enucleation within one hour after euthanasia and placed in tissue culture medium with antibiotics and antimycotics and refrigerated at 4° C. Sclera tissue was dissected from the eyes and placed between the donor and recipient chambers of the Franz apparatus. Sclera was stored for a maximum of 30 hours in the tissue culture at 4° C. before the start of the experiment.
Methotrexate (MTX; (4-Amino-10-methylfolic acid hydrate); available from Sigma-Aldrich Corp., St. Louis, Mo.) was dissolved in a permeation enhancement carrier of water, 30% propylene glycol, 5% Ethyl Lactate, 0.1% Azone, and 0.75% hyaluronic acid as a gelling agent, with 0.1% neolone 850 as a preservative. An infinite donor sink model was used wherein 0.75 grams of the drug formulation (1.875 mg of each) was placed in the Franz donor cells. Hanks isotonic salt solution served as the Franz recipient cell fluid.
HPLC analysis was performed according to a method developed in our lab. Briefly, a Beckman Coulter system consisting of 125 pumps, 508 auto sampler and 168 diode array detector was used with an XTerra RP-C18, 150×40 mm, 3 μm column. The analytes were eluted with a gradient mobile phase from 25-30% Methanol in HPLC grade water with 0.1% Trifluoroacetic Acid (TFA) and flow rate of 0.7 ml/min. 32 Karat™ software (Beckman Coulter, Inc.) was used for acquisition of chromatograms.
The Franz recipient cell balanced salt solution was analyzed by the HPLC method for MTX concentration.

flux rates through intact human skin [1]: significant flux rates
Compound: hyaluronic acid

Compound: FITC-labeled human insulin: human insulin modified at the N-terminus of the B-chain with an FITC conjugate/tag, 5733 Daltons, Invitrogen
fluorescence in the optic disc, passive permeation [2]: did not show fluorescence | fluorescence image of the optic disc after 1 hour of PODD ([2]; in vivo): reached the posterior segment of the rabbit's eye | fluorescence, contralateral eye ([2]; in vivo): no fluorescence

histological examination, PODD exposure compared to passive control and normal sclera [3]: no differences between the samples | levels of MTX recovered from Franz recipient cell ([4]; PODD 350 nm group, 24 CPS, 30 and 60 minute time points): significant | levels of MTX recovered from Franz recipient cell ([4]; PODD 370 nm group, 24 CPS, 15, 30 and 60 minute time points): significant | total MTX flux (compared with the therapeutic level) ([4]; PODD, up to 60 minutes, 1.0 cm^2 ovine sclera): < 400 µg | flux rate, 370 nm group compared to the 350 nm group ([4]; all time points (15, 30, 60 minutes), 24 CPS): much higher flux rate | MTX permeation through the scleral tissue, PODD cells ([4]; both wavelengths of light tested (350 nm and 370 nm), 24 CPS, vs passive controls): improvement
Compound: CN(Cc1cnc2nc(N)nc(N)c2n1)c1ccc(C(=O)N[C@@H](CCC(=O)O)C(=O)O)cc1 [MTX, 4-Amino-10-methylfolic acid hydrate]
structural integrity of the sclera [3]: grossly intact and undamaged

— US8948863B2, “Photokinetic ocular drug delivery methods and apparatus” (priority 2009, dated 2015)
